Earlier results on 1 compound are cited in US20090035370A1, “DOSAGE FORM AND METHOD OF USE” (DRUGTECH CORPORATION, priority 2007, published 2009).

Like-named read-outs stand apart in the source and are kept apart here. Bounds are passed on as bounds.

The conditions of series [1]: administered orally.
The target in series [2] is T1, D2 receptor (Homo sapiens, UniProt P14416). The conditions noted are these: patients receiving 300-600 mg/day.
The target of series [3] is T1, D2 receptor. The conditions noted are these: PET.
Series [4] concerns the target T1, D2 receptor.

T1 sequence (P14416 whole entry): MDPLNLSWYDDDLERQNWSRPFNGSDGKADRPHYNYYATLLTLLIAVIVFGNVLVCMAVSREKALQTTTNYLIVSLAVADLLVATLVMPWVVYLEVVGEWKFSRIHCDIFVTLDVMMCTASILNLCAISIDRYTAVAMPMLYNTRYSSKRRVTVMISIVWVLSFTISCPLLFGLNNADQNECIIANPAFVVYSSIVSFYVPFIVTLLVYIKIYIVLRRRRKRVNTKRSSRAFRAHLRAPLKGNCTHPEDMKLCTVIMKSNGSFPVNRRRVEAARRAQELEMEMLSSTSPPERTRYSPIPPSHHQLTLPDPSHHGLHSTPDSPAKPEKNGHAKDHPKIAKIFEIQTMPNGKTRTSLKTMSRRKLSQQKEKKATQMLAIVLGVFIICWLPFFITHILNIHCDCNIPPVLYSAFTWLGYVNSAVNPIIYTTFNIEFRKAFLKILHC

Consider `OCCOCCN1CCN(C2=Nc3ccccc3Sc3ccccc32)CC1` [Quetiapine], for which, in series [1], the “time to peak plasma level” value is at most 1.5 h. In addition, the D2 occupancy result on D2 receptor [2] (12 hours after receiving a dose) is “less than 20%”; at D2 receptor [2] (at 2 hours), around 60%; on D2 receptor [3] (2 to 3 hours after a single dose), 58-62%; at D2 receptor [3] (12 hours after the last dose), 0-27%; at D2 receptor [4] (2-3 hours after a dose), 58-64%; at D2 receptor [4] (by the end of a 12-hour dosing interval) it was 0-27%. Further, the antipsychotic efficacy result (Kapur et al. 2000) was “effective antipsychotic”. Under “patients with a first episode of schizophrenia, single daily dose”, the response to treatment entry is recorded as “responded to treatment”.
